Results on ten molecules are retold here after ChEMBL document CHEMBL1148751, “Optimization of the indenone ring of indenoisoquinoline topoisomerase I inhibitors” (2007).

Holding throughout (format): functional
The subject of experiment [1] is SF-539. As to the kind of experiment: Cytotoxicity against human SF539 cells.
Experiment [2] deals with HCT-116. As to the kind of experiment: Cytotoxicity against human HCT116 cells.
Experiment [3] relates to DU-145. As to the kind of experiment: Cytotoxicity against human DU145 cells.
In experiment [4] the test system is OVCAR-3. Put plainly: Cytotoxicity against human OVCAR-3 cells.
Experiment [5] concerns UACC-62. Put plainly: Cytotoxicity against human UACC62 cells.
In experiment [6] the test system is SN12C. Put plainly: Cytotoxicity against human SN12C cells.
Experiment [7] concerns HOP-62. Put plainly: Cytotoxicity against human HOP62 cells.
Experiment [8] has as its system MDA-MB-435. As to the kind of experiment: Cytotoxicity against human MDA-MB-435 cells.

Broadly, the GI50 is the concentration at which growth is held to half of that of the control. Lower therefore signals greater sensitivity of the cells.

Consider `COc1ccc2c(c1)C(=O)c1c-2n(CCCCl)c(=O)c2cc([N+](=O)[O-])ccc12`, for which the GI50 is 0.027 µM in experiment [1]; 0.794 µM in experiment [2]; 0.036 µM in experiment [3]; 3.39 µM in experiment [4]; below 0.01 µM in experiment [5]; below 0.01 µM in experiment [6]. In addition, the GI50 is 0.295 µM in experiment [7] and 3.24 µM in experiment [8].
`Cc1ccc2c(c1)C(=O)c1c-2n(CCCBr)c(=O)c2cc([N+](=O)[O-])ccc12`: the GI50 in experiment [1] is above 100 µM; in experiment [2] it was 18.6 µM; in experiment [3], 50.1 µM; in experiment [4] it was 70.8 µM; in experiment [5] it was 26.3 µM; in experiment [6] it was 46.8 µM. The GI50 in experiment [7] was 24.5 µM; in experiment [8] it was above 100 µM.
For `N#Cc1ccc2c(c1)C(=O)c1c-2n(CCCCl)c(=O)c2cc([N+](=O)[O-])ccc12`, the GI50 in experiment [1] turned out to be 2.63 µM; in experiment [2], 1.82 µM; in experiment [3] it was 2.75 µM; in experiment [4] it was 8.71 µM; in experiment [5] it was 1.12 µM; in experiment [6], 5.89 µM. The results for the concentration for 50% growth inhibition (GI50) in experiment [7] and in experiment [8] were 2.57 µM and above 100 µM, respectively.
Consider `COC(=O)c1ccc2c(c1)C(=O)c1c-2n(CCCCl)c(=O)c2cc([N+](=O)[O-])ccc12`, for which the GI50 in experiment [1] was 83.2 µM; in experiment [2] it was 41.7 µM; in experiment [3], 37.2 µM; in experiment [4], 95.5 µM; in experiment [5] it was 27.5 µM; in experiment [6], above 100 µM. Further, the GI50 is 43.7 µM in experiment [7] and above 100 µM in experiment [8].
With `CCOc1ccc2c(c1)C(=O)c1c-2n(CCCBr)c(=O)c2cc([N+](=O)[O-])ccc12`, the GI50 in experiment [1] turned out to be 5.62 µM; in experiment [2], 6.03 µM; in experiment [3], 4.27 µM; in experiment [4], 23.4 µM; in experiment [5] it was 5.75 µM; in experiment [6], 11.7 µM. The GI50 in experiment [7] came out at 5.75 µM; in experiment [8], 30.9 µM.
Regarding `CCc1ccc2c(c1)C(=O)c1c-2n(CCCBr)c(=O)c2cc([N+](=O)[O-])ccc12`, the GI50 in experiment [1] was 28.2 µM; in experiment [2], above 50.1 µM; in experiment [3] it was above 50.1 µM; in experiment [4], above 50.1 µM; in experiment [5], 32.4 µM; in experiment [6] it was above 50.1 µM. In addition, the GI50 in experiment [7] was 21.4 µM; in experiment [8], above 50.1 µM.
Take `COC(=O)OCc1ccc2c(c1)C(=O)c1c-2n(CCCBr)c(=O)c2cc([N+](=O)[O-])ccc12`: the GI50 in experiment [1] was 56.2 µM; in experiment [2], 81.3 µM; in experiment [3], above 100 µM; in experiment [4], above 100 µM; in experiment [5], 33.9 µM; in experiment [6], above 100 µM. The values for the GI50 in experiment [7] and in experiment [8] were 27.5 µM and above 100 µM, respectively.
Consider `O=C1c2cc(-c3ccccc3)ccc2-c2c1c1ccc([N+](=O)[O-])cc1c(=O)n2CCCBr`, for which the GI50 was 16.6 µM in experiment [1]; above 50.1 µM in experiment [2]; above 50.1 µM in experiment [3]; above 50.1 µM in experiment [4]; 49 µM in experiment [5]; above 50.1 µM in experiment [6]. The GI50 was 18.2 µM in experiment [7] and above 50.1 µM in experiment [8].
As for `O=C1c2cc(Cl)ccc2-c2c1c1ccc([N+](=O)[O-])cc1c(=O)n2CCCBr`, the GI50 worked out at 3.72 µM in experiment [1]; 3.47 µM in experiment [2]; 3.98 µM in experiment [3]; 36.3 µM in experiment [4]; 3.47 µM in experiment [5]; 2.51 µM in experiment [6]. Besides, the GI50 in experiment [7] amounted to 2.45 µM; in experiment [8] it was 14.8 µM.
In the case of `CSc1ccc2c(c1)C(=O)c1c-2n(CCCBr)c(=O)c2cc([N+](=O)[O-])ccc12`, the GI50 was 4.57 µM in experiment [1]; 2.24 µM in experiment [2]; 3.89 µM in experiment [3]; above 100 µM in experiment [4]; 3.09 µM in experiment [5]; 0.891 µM in experiment [6]. Further, the 50% growth inhibitory concentration (GI50) was found to be 1.05 µM in experiment [7] and 30.9 µM in experiment [8].
